Assay results: patent US7943619B2, “Isoxazolo-pyridazine derivatives” (priority 2007, dated 2011)
Counter-ions that a name gives are not always drawn.

target: human GABA A receptor α5β3γ2 (α5 subunit) (Homo sapiens, UniProt P18507+P31644); test: biochemical; assay type: binding; details: competition for [3H]flumazenil binding, HEK293 cells transiently expressing human receptors; means of two determinations; read-out: hKi
Protocol: The affinity of compounds at GABA A receptor subtypes was measured by competition for [3H]flumazenil (85 Ci/mmol; Roche) binding to HEK293 cells expressing rat (stably transfected) or human (transiently transfected) receptors of composition α1β3γ2, α2β3γ2, α3β3γ2 and α5β3γ2.
Cell pellets were suspended in Krebs-tris buffer (4.8 mM KCl, 1.2 mM CaCl2, 1.2 mM MgCl2, 120 mM NaCl, 15 mM Tris; pH 7.5; binding assay buffer), homogenized by polytron for ca. 20 sec on ice and centrifuged for 60 min at 4° C. (50000 g; Sorvall, rotor: SM24=20000 rpm). The cell pellets were resuspended in Krebs-tris buffer and homogenized by polytron for ca. 15 sec on ice. Protein was measured (Bradford method, Bio-Rad) and aliquots of 1 mL were prepared and stored at −80° C.
Assays were incubated to equilibrium for 1 hour at 4° C. and harvested onto GF/C uni-filters (Packard) by filtration using a Packard harvester and washing with ice-cold wash buffer (50 mM Tris; pH 7.5). After drying, filter-retained radioactivity was detected by liquid scintillation counting. Ki values were calculated using Excel-Fit (Microsoft) and are the means of two determinations.

Sequence of human GABA A receptor α5β3γ2 (α5 subunit) (P31644 32-462): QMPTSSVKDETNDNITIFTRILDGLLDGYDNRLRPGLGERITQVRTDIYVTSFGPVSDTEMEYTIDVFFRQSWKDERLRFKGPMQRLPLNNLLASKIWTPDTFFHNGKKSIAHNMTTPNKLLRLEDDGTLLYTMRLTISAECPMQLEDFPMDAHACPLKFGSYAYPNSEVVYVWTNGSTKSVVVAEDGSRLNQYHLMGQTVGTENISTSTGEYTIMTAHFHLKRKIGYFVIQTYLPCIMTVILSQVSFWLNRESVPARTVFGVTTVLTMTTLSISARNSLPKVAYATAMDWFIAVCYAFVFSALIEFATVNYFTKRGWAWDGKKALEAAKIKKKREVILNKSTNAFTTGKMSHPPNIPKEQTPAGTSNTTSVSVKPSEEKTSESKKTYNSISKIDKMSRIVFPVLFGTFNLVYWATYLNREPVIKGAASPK
Sequence of human GABA A receptor α5β3γ2 (α5 subunit) (P28472 26-473 partner): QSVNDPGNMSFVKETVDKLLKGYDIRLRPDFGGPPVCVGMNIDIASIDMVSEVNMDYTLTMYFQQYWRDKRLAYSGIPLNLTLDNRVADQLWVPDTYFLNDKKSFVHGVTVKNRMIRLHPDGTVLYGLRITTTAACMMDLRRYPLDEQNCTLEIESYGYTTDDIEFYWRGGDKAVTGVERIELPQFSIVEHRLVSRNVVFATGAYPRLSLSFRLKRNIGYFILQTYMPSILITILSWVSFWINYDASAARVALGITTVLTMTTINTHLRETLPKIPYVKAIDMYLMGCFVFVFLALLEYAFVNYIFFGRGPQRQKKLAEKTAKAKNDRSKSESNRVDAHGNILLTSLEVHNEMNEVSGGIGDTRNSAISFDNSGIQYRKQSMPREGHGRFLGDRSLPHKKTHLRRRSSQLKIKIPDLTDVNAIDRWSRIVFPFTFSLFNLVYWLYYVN
Sequence of human GABA A receptor α5β3γ2 (α5 subunit) (P18507 40-475): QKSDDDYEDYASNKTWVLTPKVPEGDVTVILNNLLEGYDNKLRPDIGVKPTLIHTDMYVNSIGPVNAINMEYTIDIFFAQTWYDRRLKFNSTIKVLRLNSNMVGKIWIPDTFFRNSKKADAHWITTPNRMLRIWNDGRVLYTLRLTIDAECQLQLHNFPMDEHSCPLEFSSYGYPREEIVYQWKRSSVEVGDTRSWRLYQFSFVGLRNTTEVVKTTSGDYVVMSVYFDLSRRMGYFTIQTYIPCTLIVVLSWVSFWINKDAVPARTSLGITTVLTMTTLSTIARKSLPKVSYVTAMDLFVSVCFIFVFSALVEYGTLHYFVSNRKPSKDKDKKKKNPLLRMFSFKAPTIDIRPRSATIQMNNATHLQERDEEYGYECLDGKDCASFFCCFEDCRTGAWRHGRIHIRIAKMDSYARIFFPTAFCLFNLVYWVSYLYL

Structure (SMILES) | Ki
Cc1onc(-c2ccccc2)c1COc1ccc(NC(=O)c2ccco2)nn1 [Example 32, Furan-2-carboxylic acid [6-(5-methyl-3-phenyl-isoxazol-4-ylmethoxy)-pyridazin-3-yl]-amide] | 6.9 nM
CC(=O)Nc1ccc(OCc2c(-c3ccccc3)noc2C)nn1 [Example 17, N-[6-(5-Methyl-3-phenyl-isoxazol-4-ylmethoxy)-pyridazin-3-yl]-acetamide] | 3.9 nM
CCOC(=O)c1nnc(OCc2c(-c3ccccc3)noc2C)cc1C [Example 42, 4-Methyl-6-(5-methyl-3-phenyl-isoxazol-4-ylmethoxy)-pyridazine-3-carboxylic acid ethyl ester] | 1.9 nM
Cc1onc(-c2ccccn2)c1COc1ccc(C(=O)NCC2CC2)nn1 [Example 100, 6-(5-Methyl-3-pyridin-2-yl-isoxazol-4-ylmethoxy)-pyridazine-3-carboxylic acid cyclopropylmethyl-amide] | 4.1 nM
Cc1onc(-c2cccc(F)c2)c1CNc1ccc(C(=O)NCC(F)(F)F)nn1 [Example 118, 6-{[3-(3-Fluoro-phenyl)-5-methyl-isoxazol-4-ylmethyl]-amino}-pyridazine-3-carboxylic acid (2,2,2-trifluoro-ethyl)-amide] | 28.9 nM
CNC(=O)c1ccc(OCc2c(-c3cccc(F)c3)noc2C)nn1 [Example 50, 6-[3-(3-Fluoro-phenyl)-5-methyl-isoxazol-4-ylmethoxy]-pyridazine-3-carboxylic acid methylamide] | 4.1 nM
Cc1onc(-c2ccc(F)cc2)c1COc1ccc2nncn2n1 [Example 91, 6-[3-(4-Fluoro-phenyl)-5-methyl-isoxazol-4-ylmethoxy]-[1,2,4]triazolo[4,3-b]pyridazine] | 7.5 nM
Cc1onc(-c2ccccc2)c1COc1ccc(C(=O)NC(C)C)nn1 [Example 7, 6-(5-Methyl-3-phenyl-isoxazol-4-ylmethoxy)-pyridazine-3-carboxylic acid isopropylamide] | 5.9 nM
Cc1onc(-c2ccc(Cl)cn2)c1COc1ccc(C(=O)O)nn1 [Example 113, 6-[3-(5-Chloro-pyridin-2-yl)-5-methyl-isoxazol-4-ylmethoxy]-pyridazine-3-carboxylic acid] | 2.1 nM
Cc1cc(C)n(-c2ccc(OCc3c(-c4ccccc4)noc3C)nn2)n1 [Example 39, 3-(3,5-Dimethyl-pyrazol-1-yl)-6-(5-methyl-3-phenyl-isoxazol-4-ylmethoxy)-pyridazine] | 5.1 nM
Cc1onc(-c2ccncc2)c1COc1ccc(C(=O)NCCO)nn1 [Example 107, 6-(5-Methyl-3-pyridin-4-yl-isoxazol-4-ylmethoxy)-pyridazine-3-carboxylic acid (2-hydroxy-ethyl)-amide] | 23.3 nM
Cc1onc(-c2ccc(F)cc2)c1COc1ccc(Cl)nn1 [Example 57, 3-Chloro-6-[3-(4-fluoro-phenyl)-5-methyl-isoxazol-4-ylmethoxy]-pyridazine] | 4.6 nM
Cc1cc(OCc2c(-c3ccccc3)noc2C)nnc1C(=O)NC1CC1 [Example 45, 4-Methyl-6-(5-methyl-3-phenyl-isoxazol-4-ylmethoxy)-pyridazine-3-carboxylic acid cyclopropylamide] | 1.4 nM
Cc1onc(-c2ccc(F)cn2)c1COc1ccc(C(=O)NC(C)(C)CO)nn1 [Example 112, 6-[3-(5-Fluoro-pyridin-2-yl)-5-methyl-isoxazol-4-ylmethoxy]-pyridazine-3-carboxylic acid (2-hydroxy-1,1-dimethyl-ethyl)-amide] | 1.5 nM
Cc1onc(-c2ccc(F)cc2)c1COc1ccc(C(=O)N2CCS(=O)(=O)CC2)nn1 [Example 66, (1,1-Dioxo-1λ6-thiomorpholin-4-yl)-{6-[3-(4-fluoro-phenyl)-5-methyl-isoxazol-4-ylmethoxy]-pyridazin-3-yl}-methanone] | 11.7 nM
Cc1onc(-c2ccccn2)c1COc1ccc(C(=O)NCC(F)(F)F)nn1 [Example 98, 6-(5-Methyl-3-pyridin-2-yl-isoxazol-4-ylmethoxy)-pyridazine-3-carboxylic acid (2,2,2-trifluoro-ethyl)-amide] | 2.8 nM
Cc1onc(-c2ccccc2)c1COc1ccc(Br)nn1 [Example 2, 3-Bromo-6-(5-methyl-3-phenyl-isoxazol-4-ylmethoxy)-pyridazine] | 7.6 nM
Cc1onc(-c2ccccc2)c1COc1ccc(N(C)C)nn1 [Example 38, Dimethyl-[6-(5-methyl-3-phenyl-isoxazol-4-ylmethoxy)-pyridazin-3-yl]-amine] | 8.4 nM
Cc1ccc(OCc2c(-c3ccccc3)noc2C)nn1 [Example 4, 3-Methyl-6-(5-methyl-3-phenyl-isoxazol-4-ylmethoxy)-pyridazine] | 6.2 nM

Structure (SMILES) | Ki
Cc1onc(-c2ccccc2)c1COc1ccc(C(=O)NC(C)(C)CO)nn1 [Example 13, 6-(5-Methyl-3-phenyl-isoxazol-4-ylmethoxy)-pyridazine-3-carboxylic acid (2-hydroxy-1,1-dimethyl-ethyl)-amide] | 7.7 nM
Cc1onc(-c2cccc(F)c2)c1COc1ccc(C(=O)NC(C)C)nn1 [Example 54, 6-[3-(3-Fluoro-phenyl)-5-methyl-isoxazol-4-ylmethoxy]-pyridazine-3-carboxylic acid isopropylamide] | 8.4 nM
Cc1onc(-c2ccccc2)c1COc1ccc2nncn2n1 [Example 86, 6-(5-Methyl-3-phenyl-isoxazol-4-ylmethoxy)-[1,2,4]triazolo[4,3-b]pyridazine] | 6.6 nM
O=C(NC1CCOCC1)c1ccc(OCc2conc2-c2ccc(F)cc2)nn1 [Example 122, 6-[3-(4-Fluoro-phenyl)-isoxazol-4-ylmethoxy]-pyridazine-3-carboxylic acid (tetrahydro-pyran-4-yl)-amide] | 34.7 nM
Cc1onc(-c2ccccn2)c1COc1ccc(Cl)nn1 [Example 92, 3-Chloro-6-(5-methyl-3-pyridin-2-yl-isoxazol-4-ylmethoxy)-pyridazine] | 3.8 nM
CC(C)NC(=O)c1ccc(OCc2conc2-c2ccc(F)cc2)nn1 [Example 121, 6-[3-(4-Fluoro-phenyl)-isoxazol-4-ylmethoxy]-pyridazine-3-carboxylic acid isopropylamide] | 27.6 nM
Cc1onc(-c2ccccc2)c1COc1ccc(C(=O)NC2CCOCC2)nn1 [Example 9, 6-(5-Methyl-3-phenyl-isoxazol-4-ylmethoxy)-pyridazine-3-carboxylic acid (tetrahydro-pyran-4-yl)-amide] | 4.8 nM
Cc1onc(-c2ccccn2)c1COc1ccc(C(=O)NC2CCOCC2)nn1 [Example 94, 6-(5-Methyl-3-pyridin-2-yl-isoxazol-4-ylmethoxy)-pyridazine-3-carboxylic acid (tetrahydro-pyran-4-yl)-amide] | 2.9 nM
O=C(NC1CC1)c1ccc(OCc2conc2-c2ccccn2)nn1 [Example 124, 6-(3-Pyridin-2-yl-isoxazol-4-ylmethoxy)-pyridazine-3-carboxylic acid cyclopropylamide] | 31.5 nM
CCOC(=O)c1ccc(OCc2c(-c3ccc(F)cn3)noc2C)nn1 [Example 111, 6-[3-(5-Fluoro-pyridin-2-yl)-5-methyl-isoxazol-4-ylmethoxy]-pyridazine-3-carboxylic acid ethyl ester] | 1.2 nM
Cc1onc(-c2ccccc2)c1COc1ccc(N2CCOCC2)nn1 [Example 36, 4-[6-(5-Methyl-3-phenyl-isoxazol-4-ylmethoxy)-pyridazin-3-yl]-morpholine] | 9.4 nM
CNC(=O)c1ccc(OCc2c(-c3ccccn3)noc2C)nn1 [Example 102, 6-(5-Methyl-3-pyridin-2-yl-isoxazol-4-ylmethoxy)-pyridazine-3-carboxylic acid methylamide] | 0.9 nM
CCOC(=O)c1ccc(OCc2c(-c3ccccc3)noc2C)nn1 [Example 5, 6-(5-Methyl-3-phenyl-isoxazol-4-ylmethoxy)-pyridazine-3-carboxylic acid ethyl ester] | 5.5 nM
Cc1onc(-c2ccccc2)c1COc1ccc(NC(=O)c2ccno2)nn1 [Example 33, Isoxazole-5-carboxylic acid [6-(5-methyl-3-phenyl-isoxazol-4-ylmethoxy)-pyridazin-3-yl]-amide] | 5.4 nM
CNc1ccc(OCc2c(-c3ccccc3)noc2C)nn1 [Example 37, Methyl-[6-(5-methyl-3-phenyl-isoxazol-4-ylmethoxy)-pyridazin-3-yl]-amine HCl] | 6.3 nM
Cc1onc(-c2ccccc2)c1COc1ccc(C(=O)NCCO)nn1 [Example 12, 6-(5-Methyl-3-phenyl-isoxazol-4-ylmethoxy)-pyridazine-3-carboxylic acid (2-hydroxy-ethyl)-amide] | 3.4 nM
Cc1cc(OCc2c(-c3ccccc3)noc2C)nnc1Cl [Example 41, 3-Chloro-4-methyl-6-(5-methyl-3-phenyl-isoxazol-4-ylmethoxy)-pyridazine] | 2.3 nM
Cc1onc(-c2ccccc2)c1COc1ccc(N2CCCC2=O)nn1 [Example 27, 1-[6-(5-Methyl-3-phenyl-isoxazol-4-ylmethoxy)-pyridazin-3-yl]-pyrrolidin-2-one] | 4 nM
Cc1onc(-c2ccccc2)c1COc1ccc(C(=O)NC2CC2)nn1 [Example 8, 6-(5-Methyl-3-phenyl-isoxazol-4-ylmethoxy)-pyridazine-3-carboxylic acid cyclopropylamide] | 3.5 nM
